From US20150366199A1, “COMPOSITIONS COMPRISING GOUGEROTIN AND AN INSECTICIDE” (priority 2013, published 2015)
Like-named read-outs stand apart in the source and are kept apart here.

Legend:
[1] = tested on: mustard beetle larvae (Phaedon cochleariae); assay: Phaedon cochleariae - spray test; settings: for Efficacy in % after 2d: mortality after 2 d; for Efficacy in % after 6d: mortality after 6 d
Experimental: The expected efficacy of a given combination of two compounds is calculated as follows (see Colby, S. R., “Calculating Synergistic and antagonistic Responses of Herbicide Combinations”, Weeds 15, pp. 20-22, 1967):
Solvent: 78.0 parts by weight of acetone • • 1.5 parts by weight of dimethylformamide
To produce a suitable preparation of a NRRL B-50550, 1 part by weight of NRRL B-50550 75 WP was mixed with the stated amount of solvents and was diluted with water, containing an emulsifier concentration of 1000 ppm, to the desired concentration. Further test concentrations are prepared by dilution with emulsifier containing water.
Chinese cabbage (Brassica pekinensis) leaf-disks are sprayed with a preparation of the active ingredient of the desired concentration. Once dry, the leaf disks are infested with mustard beetle larvae (Phaedon cochleariae).
After the specified period of time, mortality in % is determined 100% means all beetle larvae have been killed and 0% means none of the beetle larvae have been killed. The mortality values determined thus are recalculated using the Colby-formula.

[2] = tested on: fall armyworm larvae (Spodoptera frugiperda); assay: Spodoptera frugiperda - spray test; settings: for Efficacy in % after 6d: mortality after 6 d; for Efficacy in % after 2d: mortality after 2 d
Experimental: Solvent: 78.0 parts by weight acetone • 1.5 parts by weight dimethylformamide
To produce a suitable preparation of NRRL B-50550, 1 part by weight of NRRL B-50550 75 WP is mixed with the stated amount of solvents and is diluted with water, containing an emulsifier concentration of 1000 ppm, to the desired concentration. Further test concentrations are prepared by dilution with emulsifier containing water.
Maize (Zea mais) leaf sections are sprayed with a preparation of the active ingredient of the desired concentration. Once dry, the leaf sections are infested with fall armyworm larvae (Spodoptera frugiperda).
After the specified period of time, mortality in % is determined 100% means all caterpillars have been killed and 0% means none of the caterpillars have been killed. The mortality values determined thus are recalculated using the Colby-formula.

[3] = tested on: two spotted spidermite (Tetranychus urticae); assay: Tetranychus urticae - spray test, OP-resistant; type: in vivo; settings: mortality after 6 d
Source text: (§1) Emulsifier: alkylaryl polyglycol ether

[4] = tested on: green peach aphid (Myzus persicae); assay: Myzus persicae - spray test (Chinese cabbage leaf-disks, Example 6); type: in vivo; settings: for Efficacy in % after 1d: mortality after 1 d; for Efficacy in % after 6d: mortality after 6 d
Source text: as §1

pin worm = settings: parasites on animals, such as pin worm, cited from earlier work
[5] = cited from earlier work
[6] = tested on: gram-positive, gram-negative bacteria and tubercule bacillus; settings: cited from earlier work
mites = settings: cited from earlier work
[7] = tested on: green peach aphid (Myzus persicae); assay: Myzus persicae - spray test (pepper leaves, Example 8); type: in vivo; settings: 0.5 ppm

Cc1c(F)c(F)c(COC(=O)[C@@H]2[C@H](/C=C(\Cl)C(F)(F)F)C2(C)C)c(F)c1F (racemic) [Tefluthrin]
Efficacy in % after 2d ([1]; 40 ppm): 0%

CNC(=O)c1cc(C#N)cc(C)c1NC(=O)c1cc(Cn2nnc(C(F)(F)F)n2)nn1-c1ncccc1Cl [1-(3-chloropyridin-2-yl)-N-[4-cyano-2-methyl-6-(methylcarbamoyl)phenyl]-3-{[5-(trifluoromethyl)-2H-tetrazol-2-yl]methyl}-1H-pyrazole-5-carboxamide]
Efficacy in % after 6d ([2]; 0.64 ppm): 33%
Efficacy in % after 6d ([1]; 0.128 ppm): 0%
Efficacy in % after 2d ([1]; 0.64 ppm): 50%

Cc1cc(F)c(-n2nc(C(F)(F)F)nc2N)cc1[S+]([O-])CC(F)(F)F (stereo not drawn) [1-{2-fluoro-4-methyl-5-[(2,2,2-trifluorethyl)sulfinyl]phenyl}-3-(trifluoromethyl)-1H-1,2,4-triazol-5-amine]
Efficacy in % after 6d ([3]; 3.2 ppm): 0%

CNC(=O)c1cc(Cl)cc(C)c1NC(=O)c1cc(Br)nn1-c1ncccc1Cl [Chlorantraniliprole]
Efficacy in % after 1d ([4]; 3.2 ppm): 0%
Efficacy in % after 6d ([3]; 16 ppm): 0%

CN/C(=N\[N+](=O)[O-])NCc1cnc(Cl)s1 [Clothianidin]
Efficacy in % after 6d ([4]; 0.32 ppm): 0%

CNC(=O)c1cc(C#N)cc(C)c1NC(=O)c1cc(Br)nn1-c1ncccc1Cl [Cyantraniliprole]
Efficacy in % after 6d ([1]; 0.64 ppm): 0%
Efficacy in % after 6d ([4]; 0.64 ppm): 0%
Efficacy in % after 6d ([4]; 3.2 ppm): 0%
Efficacy in % after 1d ([4]; 16 ppm): 0%
Efficacy in % after 6d ([3]; 80 ppm): 0%

N#Cc1nn(-c2c(Cl)cc(C(F)(F)F)cc2Cl)c(N)c1[S+]([O-])C(F)(F)F (stereo not drawn) [Fipronil]
Efficacy in % after 6d ([2]; 16 ppm): 0%

Cc1cc(C(F)(C(F)(F)F)C(F)(F)F)ccc1NC(=O)c1cccc(I)c1C(=O)NC(C)(C)CS(C)(=O)=O [Flubendiamide]
Efficacy in % after 2d ([2]; 3.2 ppm): 33%

CNCC(=O)NC(CO)C(=O)NC1C(C(N)=O)OC(n2ccc(N)nc2=O)C(O)C1O [Gougerotin, 1-(4-Amino-2-oxo-1(2H)-pyrimidinyl)-1,4-dideoxy-4-[[N—(N-methylglycyl)-D-seryl]amino]-b-D-glucopyranuronamide]
parasiticidal activity (pin worm): inhibitory effect on the ovulation of pin worms
parasiticidal activity (pin worm; listed as gougerotin): parasiticidal action
water solubility [5]: water soluble
antibacterial activity [6]: weak
acaricidal (miticidal) effect (mites): acaricidal (miticidal) effect

O=[N+]([O-])NC1=NCCN1Cc1ccc(Cl)nc1 [Imidacloprid]
Efficacy in % after 6d ([3]; 2 ppm): 0%

CNC(=O)Oc1cc(C)c(SC)c(C)c1 [Methiocarb]
Efficacy in % after 6d ([4]; 2000 ppm): 0%

CC(c1ccc(C(F)(F)F)nc1)S(C)(=O)=NC#N (stereo not drawn) [Sulfoxaflor]
Efficacy in % after 1d ([4]; 0.64 ppm): 0%

N#C/N=C1\SCCN1Cc1ccc(Cl)nc1 [Thiacloprid]
Efficacy in % after 2d ([7]; mortality after 2 d): 40%
Efficacy in % after 3d ([7]; mortality after 3 d): 20%
Efficacy in % after 7d ([7]; mortality after 7 d): 10%

CS/C(C)=N\OC(=O)N(C)SN(C)C(=O)O/N=C(\C)SC [Thiodicarb]
Efficacy in % after 2d ([2]; 40 ppm): 0%

CC1(C)C(C=C(Cl)Cl)C1C(=O)OC(C#N)c1ccc(F)c(Oc2ccccc2)c1 (stereo not drawn) [β-Cyfluthrin, beta-Cyfluthrin]
Efficacy in % after 6d ([2]; 1.6 ppm): 0%
Efficacy in % after 6d ([1]; 1.6 ppm): 0%
Efficacy in % after 6d ([4]; 1.6 ppm): 0%

Spinetoram
Efficacy in % after 2d ([2]; 0.64 ppm): 0%

Spinosad
Efficacy in % after 6d ([2]; 0.64 ppm): 0%
Efficacy in % after 2d ([1]; 80 ppm): 50%
